Active and inactive are the calls of the source. No cut-off for these calls is given here.
Experiments:
[1] = tested on: A-431; test: cells; format: functional, cell-based; conditions: Homo sapiens;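 note: antiproliferative test in A-431 cells carrying wild-type EGFR, with cell growth inhibition read by MTT assay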
Description: Antiproliferative activity against human A-431 cells harboring wild type EGFR assessed as inhibition of cell growth by MTT assay

[2] = tested on: NCI-H1975; test: cells; format: functional, cell-based; conditions: Homo sapiens
[3] = tested on: U-87 MG; test: cells; format: functional, cell-based, U-87MG ATCC; conditions: Homo sapiens;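 note: antiproliferative effect on U-87 MG cells carrying wild-type EGFR, growth inhibition read out by MTT assay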
Description: Antiproliferative activity against human U-87MG cells harboring wild type EGFR assessed as inhibition of cell growth by MTT assay

[4] = cells; format: functional, tissue-based; conditions: Homo sapiens, U87MG Human EGFR vIII
Description: Antiproliferative activity against human U87MG Human EGFR vIII cells overexpressing EGFRvIII mutant assessed as inhibition of cell growth by MTT assay

[5] = target: Epidermal growth factor receptor (Homo sapiens, UniProt P00533, L858R/T790M); test: biochemical; format: cell-based, Sf21
Chain of Epidermal growth factor receptor (Homo sapiens, UniProt P00533, L858R/T790M) (P00533 25-1210 T790M/L858R limits assumed): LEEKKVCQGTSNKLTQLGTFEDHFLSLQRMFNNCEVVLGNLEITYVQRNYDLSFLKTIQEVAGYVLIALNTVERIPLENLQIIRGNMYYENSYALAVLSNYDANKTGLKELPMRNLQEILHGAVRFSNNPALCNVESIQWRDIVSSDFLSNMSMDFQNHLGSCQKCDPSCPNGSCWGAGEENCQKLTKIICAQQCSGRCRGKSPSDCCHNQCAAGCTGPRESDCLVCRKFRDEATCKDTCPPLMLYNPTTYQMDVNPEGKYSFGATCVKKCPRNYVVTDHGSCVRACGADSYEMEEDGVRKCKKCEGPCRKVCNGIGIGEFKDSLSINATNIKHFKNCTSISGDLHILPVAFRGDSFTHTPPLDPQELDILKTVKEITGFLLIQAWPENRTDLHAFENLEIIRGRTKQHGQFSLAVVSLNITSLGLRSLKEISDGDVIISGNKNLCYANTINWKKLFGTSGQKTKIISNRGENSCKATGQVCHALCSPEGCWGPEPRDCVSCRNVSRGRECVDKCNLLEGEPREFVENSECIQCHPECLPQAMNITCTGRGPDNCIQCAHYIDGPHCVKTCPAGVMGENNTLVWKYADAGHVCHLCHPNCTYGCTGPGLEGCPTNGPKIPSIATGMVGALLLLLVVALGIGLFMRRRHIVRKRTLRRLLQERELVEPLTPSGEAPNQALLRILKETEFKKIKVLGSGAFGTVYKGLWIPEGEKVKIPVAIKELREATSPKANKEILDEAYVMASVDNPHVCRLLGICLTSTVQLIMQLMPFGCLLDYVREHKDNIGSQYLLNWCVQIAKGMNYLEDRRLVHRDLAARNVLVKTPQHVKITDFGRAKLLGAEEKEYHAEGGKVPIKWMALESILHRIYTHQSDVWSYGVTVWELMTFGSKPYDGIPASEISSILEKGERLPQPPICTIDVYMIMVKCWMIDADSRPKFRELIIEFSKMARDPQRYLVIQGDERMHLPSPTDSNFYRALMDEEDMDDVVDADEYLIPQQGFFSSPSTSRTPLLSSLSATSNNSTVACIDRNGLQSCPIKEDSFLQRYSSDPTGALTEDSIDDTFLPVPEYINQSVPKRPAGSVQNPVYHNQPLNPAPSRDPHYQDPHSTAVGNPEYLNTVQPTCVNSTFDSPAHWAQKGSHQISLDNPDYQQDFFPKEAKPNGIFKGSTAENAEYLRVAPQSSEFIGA

[6] = tested on: U87MG Human EGFR vIII; test: Induction of apoptosis in human U87MG Human EGFR vIII cells by annexinV-FITC/propidium iodide staining based flow cytometry analysis; format: functional, cell-based
[7] = target: Mitogen-activated protein kinase 9 (Homo sapiens) (UniProt P45984); test: Inhibition of recombinant full length human His-tagged MAPK9 expressed in baculovirus expression system at 1 uM by Z-lyte assay relative to control
[8] = tested on: NCI-H1975; test: Induction of apoptosis in human NCI-H1975 cells assessed as late apoptotic cells at 5 uM by annexinV-FITC/propidium iodide staining based flow cytometry analysis (reference value: 0.42 %); format: functional
[9] = target: Aurora kinase B (Homo sapiens) (UniProt Q96GD4); test: Inhibition of recombinant full length human His-tagged AURKB expressed in baculovirus expression system at 1 uM by Z-lyte assay relative to control
[10] = target: Vascular endothelial growth factor receptor 2 (Homo sapiens) (UniProt P35968); test: Inhibition of recombinant human His-tagged VEGFR2 (789 to 1356 residues) expressed in baculovirus expression system at 1 uM by Z-lyte assay relative to control
[11] = target: Hepatocyte growth factor receptor (Homo sapiens) (UniProt P08581); test: Inhibition of recombinant human N-terminal His-tagged cMET (956 to 1390 residues) expressed in baculovirus expression system at 1 uM by Z-lyte assay relative to control
Chain of Hepatocyte growth factor receptor (Homo sapiens) (P08581 whole entry, the tested form may be a part): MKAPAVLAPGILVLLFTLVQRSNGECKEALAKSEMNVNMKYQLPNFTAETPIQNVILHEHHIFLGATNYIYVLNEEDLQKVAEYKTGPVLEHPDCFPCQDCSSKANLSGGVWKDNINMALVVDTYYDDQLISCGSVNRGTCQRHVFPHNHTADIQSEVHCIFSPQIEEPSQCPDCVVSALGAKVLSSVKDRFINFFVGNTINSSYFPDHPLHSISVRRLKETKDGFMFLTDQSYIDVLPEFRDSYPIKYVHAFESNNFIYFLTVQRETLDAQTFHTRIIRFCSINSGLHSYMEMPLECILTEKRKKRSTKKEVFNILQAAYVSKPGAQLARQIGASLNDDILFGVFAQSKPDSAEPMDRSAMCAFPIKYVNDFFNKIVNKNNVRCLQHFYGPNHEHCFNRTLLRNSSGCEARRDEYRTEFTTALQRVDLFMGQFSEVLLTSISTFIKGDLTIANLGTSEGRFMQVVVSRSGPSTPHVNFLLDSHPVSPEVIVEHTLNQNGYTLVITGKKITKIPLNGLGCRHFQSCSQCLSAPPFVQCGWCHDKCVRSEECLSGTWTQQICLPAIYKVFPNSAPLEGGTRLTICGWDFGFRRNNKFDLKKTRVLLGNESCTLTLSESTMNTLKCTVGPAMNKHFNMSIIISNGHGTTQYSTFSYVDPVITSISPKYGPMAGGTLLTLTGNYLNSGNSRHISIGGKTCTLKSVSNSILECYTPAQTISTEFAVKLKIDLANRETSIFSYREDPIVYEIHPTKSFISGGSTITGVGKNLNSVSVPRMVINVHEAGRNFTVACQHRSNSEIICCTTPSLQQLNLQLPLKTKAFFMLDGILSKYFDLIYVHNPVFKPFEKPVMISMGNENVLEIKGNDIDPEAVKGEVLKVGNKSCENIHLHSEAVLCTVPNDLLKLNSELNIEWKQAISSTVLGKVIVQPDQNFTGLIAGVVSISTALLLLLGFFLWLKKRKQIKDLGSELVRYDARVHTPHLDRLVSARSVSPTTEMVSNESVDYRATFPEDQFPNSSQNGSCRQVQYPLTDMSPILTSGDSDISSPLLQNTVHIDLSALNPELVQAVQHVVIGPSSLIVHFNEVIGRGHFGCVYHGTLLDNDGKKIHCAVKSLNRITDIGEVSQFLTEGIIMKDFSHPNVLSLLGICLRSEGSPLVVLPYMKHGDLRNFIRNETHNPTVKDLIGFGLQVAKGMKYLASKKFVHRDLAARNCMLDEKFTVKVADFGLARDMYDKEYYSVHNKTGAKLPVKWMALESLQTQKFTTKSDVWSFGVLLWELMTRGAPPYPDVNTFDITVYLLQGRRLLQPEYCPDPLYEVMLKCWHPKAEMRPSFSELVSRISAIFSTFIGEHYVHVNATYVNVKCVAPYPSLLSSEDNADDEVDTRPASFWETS

[12] = tested on: NCI-H1975; test: Induction of apoptosis in human NCI-H1975 cells assessed as necrotic cells at 10 uM by annexinV-FITC/propidium iodide staining based flow cytometry analysis (reference value: 0.44 %); format: functional
[13] = target: Tyrosine-protein kinase BTK (Homo sapiens) (UniProt Q06187); test: Inhibition of recombinant full length human His-tagged BTK expressed in baculovirus expression system at 1 uM by Z-lyte assay relative to control
Chain of Tyrosine-protein kinase BTK (Homo sapiens) (Q06187 whole entry, the tested form may be a part): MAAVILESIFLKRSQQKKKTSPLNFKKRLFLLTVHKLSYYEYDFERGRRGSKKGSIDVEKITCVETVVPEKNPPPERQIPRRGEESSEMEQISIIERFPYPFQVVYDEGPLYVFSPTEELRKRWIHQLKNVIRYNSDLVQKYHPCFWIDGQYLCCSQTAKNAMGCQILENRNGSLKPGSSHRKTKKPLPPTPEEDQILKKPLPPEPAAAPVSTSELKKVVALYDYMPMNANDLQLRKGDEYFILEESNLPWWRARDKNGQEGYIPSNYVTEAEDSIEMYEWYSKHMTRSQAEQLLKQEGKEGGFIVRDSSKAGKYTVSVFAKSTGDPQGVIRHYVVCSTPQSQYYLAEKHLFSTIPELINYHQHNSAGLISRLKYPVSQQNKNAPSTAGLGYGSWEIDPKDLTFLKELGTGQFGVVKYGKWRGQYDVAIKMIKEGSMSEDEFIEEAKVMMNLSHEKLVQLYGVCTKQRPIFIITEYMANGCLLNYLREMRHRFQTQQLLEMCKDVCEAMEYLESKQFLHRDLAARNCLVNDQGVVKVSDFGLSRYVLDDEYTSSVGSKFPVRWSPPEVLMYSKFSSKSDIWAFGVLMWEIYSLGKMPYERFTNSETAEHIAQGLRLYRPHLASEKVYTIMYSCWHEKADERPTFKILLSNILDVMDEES

[14] = target: ALK tyrosine kinase receptor (Homo sapiens) (UniProt Q9UM73); test: Inhibition of human recombinant GST-tagged ALK cytoplasmic domain (1058-1620 residues) expressed in baculovirus expression system at 1 uM by Z-lyte assay relative to control
[15] = tested on: NCI-H1975; test: Induction of apoptosis in human NCI-H1975 cells assessed as early apoptotic cells at 20 uM by annexinV-FITC/propidium iodide staining based flow cytometry analysis (reference value: 0.53 %); format: functional
[16] = tested on: NCI-H1975; test: Induction of apoptosis in human NCI-H1975 cells assessed as necrotic cells at 20 uM by annexinV-FITC/propidium iodide staining based flow cytometry analysis (reference value: 0.44 %); format: functional
[17] = target: Epidermal growth factor receptor (Homo sapiens, UniProt P00533); test: biochemical; format: cell-based, Sf21
Description: Inhibition of wild type N-terminal GST-tagged human EGFR cytoplasmic domain (669 to 1210 residues) expressed in baculovirus infected Sf21 cells using biotin-labeled TK substrate preincubated for 30 mins followed by substrate and ATP addition at Km concentration and further incubated for 20 mins by HTRF assay

[18] = tested on: NCI-H1975; test: Induction of apoptosis in human NCI-H1975 cells assessed as live cells at 10 uM by annexinV-FITC/propidium iodide staining based flow cytometry analysis (reference value: 98.6 %); format: functional
[19] = target: Serine/threonine-protein kinase B-raf (Homo sapiens) (UniProt P15056); test: Inhibition of recombinant full length human GST-tagged BRAF expressed in baculovirus expression system at 1 uM by Z-lyte assay relative to control
[20] = tested on: NCI-H1975; test: Induction of apoptosis in human NCI-H1975 cells assessed as late apoptotic cells at 20 uM by annexinV-FITC/propidium iodide staining based flow cytometry analysis (reference value: 0.42 %); format: functional
[21] = target: Tyrosine-protein kinase Fyn (Homo sapiens) (UniProt P06241); test: Inhibition of recombinant full length human C-terminal His-tagged FYN expressed in baculovirus expression system at 1 uM by Z-lyte assay relative to control
Chain of Tyrosine-protein kinase Fyn (Homo sapiens) (P06241 2-537 limits assumed): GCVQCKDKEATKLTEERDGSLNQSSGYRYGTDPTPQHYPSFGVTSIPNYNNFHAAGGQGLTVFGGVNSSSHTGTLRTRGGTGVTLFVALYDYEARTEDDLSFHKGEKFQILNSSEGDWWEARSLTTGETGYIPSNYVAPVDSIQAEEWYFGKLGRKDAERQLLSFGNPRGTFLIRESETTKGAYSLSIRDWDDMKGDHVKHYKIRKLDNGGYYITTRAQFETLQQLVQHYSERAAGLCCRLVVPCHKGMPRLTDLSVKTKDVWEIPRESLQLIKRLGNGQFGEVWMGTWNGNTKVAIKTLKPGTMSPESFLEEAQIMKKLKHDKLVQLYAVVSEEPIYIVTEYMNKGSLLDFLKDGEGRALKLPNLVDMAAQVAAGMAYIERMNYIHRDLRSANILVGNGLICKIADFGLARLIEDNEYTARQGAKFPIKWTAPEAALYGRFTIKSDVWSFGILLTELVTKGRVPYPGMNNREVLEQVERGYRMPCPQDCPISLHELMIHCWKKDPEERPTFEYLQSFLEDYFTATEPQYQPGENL

[22] = tested on: NCI-H1975; test: Induction of apoptosis in human NCI-H1975 cells assessed as live cells at 20 uM by annexinV-FITC/propidium iodide staining based flow cytometry analysis (reference value: 98.6 %); format: functional
[23] = target: Tyrosine-protein kinase JAK2 (Homo sapiens) (UniProt O60674); test: Inhibition of recombinant human GST-tagged JAK2 (809 to 1162 residues) expressed in baculovirus expression system at 1 uM by Z-lyte assay relative to control
[24] = tested on: NCI-H1975; test: Induction of apoptosis in human NCI-H1975 cells assessed as early apoptotic cells at 10 uM by annexinV-FITC/propidium iodide staining based flow cytometry analysis (reference value: 0.53 %); format: functional
[25] = tested on: NCI-H1975; test: Induction of apoptosis in human NCI-H1975 cells assessed as necrotic cells at 5 uM by annexinV-FITC/propidium iodide staining based flow cytometry analysis (reference value: 0.44 %); format: functional
[26] = tested on: NCI-H1975; test: Induction of apoptosis in human NCI-H1975 cells assessed as early apoptotic cells at 5 uM by annexinV-FITC/propidium iodide staining based flow cytometry analysis (reference value: 0.53 %); format: functional
[27] = target: Tyrosine-protein kinase Lck (Homo sapiens) (UniProt P06239); test: Inhibition of recombinant human LCK at 1 uM by Z-lyte assay relative to control
[28] = tested on: NCI-H1975; test: Induction of apoptosis in human NCI-H1975 cells assessed as late apoptotic cells at 10 uM by annexinV-FITC/propidium iodide staining based flow cytometry analysis (reference value: 0.42 %); format: functional
[29] = tested on: NCI-H1975; test: Induction of apoptosis in human NCI-H1975 cells assessed as live cells at 5 uM by annexinV-FITC/propidium iodide staining based flow cytometry analysis (reference value: 98.6 %); format: functional
[30] = target: BDNF/NT-3 growth factors receptor (Homo sapiens) (UniProt Q16620); test: Inhibition of recombinant human His-tagged NTRK2 (526 to 638 residues) expressed in baculovirus expression system at 1 uM by Z-lyte assay relative to control
[31] = target: Receptor tyrosine-protein kinase erbB-4 (Homo sapiens) (UniProt Q15303); test: Inhibition of N-terminal GST-tagged human recombinant HER4 (708 to 993 residues) expressed in baculovirus expression system at 1 uM by Z-lyte assay relative to control
Chain of Receptor tyrosine-protein kinase erbB-4 (Homo sapiens) (Q15303 whole entry, the tested form may be a part): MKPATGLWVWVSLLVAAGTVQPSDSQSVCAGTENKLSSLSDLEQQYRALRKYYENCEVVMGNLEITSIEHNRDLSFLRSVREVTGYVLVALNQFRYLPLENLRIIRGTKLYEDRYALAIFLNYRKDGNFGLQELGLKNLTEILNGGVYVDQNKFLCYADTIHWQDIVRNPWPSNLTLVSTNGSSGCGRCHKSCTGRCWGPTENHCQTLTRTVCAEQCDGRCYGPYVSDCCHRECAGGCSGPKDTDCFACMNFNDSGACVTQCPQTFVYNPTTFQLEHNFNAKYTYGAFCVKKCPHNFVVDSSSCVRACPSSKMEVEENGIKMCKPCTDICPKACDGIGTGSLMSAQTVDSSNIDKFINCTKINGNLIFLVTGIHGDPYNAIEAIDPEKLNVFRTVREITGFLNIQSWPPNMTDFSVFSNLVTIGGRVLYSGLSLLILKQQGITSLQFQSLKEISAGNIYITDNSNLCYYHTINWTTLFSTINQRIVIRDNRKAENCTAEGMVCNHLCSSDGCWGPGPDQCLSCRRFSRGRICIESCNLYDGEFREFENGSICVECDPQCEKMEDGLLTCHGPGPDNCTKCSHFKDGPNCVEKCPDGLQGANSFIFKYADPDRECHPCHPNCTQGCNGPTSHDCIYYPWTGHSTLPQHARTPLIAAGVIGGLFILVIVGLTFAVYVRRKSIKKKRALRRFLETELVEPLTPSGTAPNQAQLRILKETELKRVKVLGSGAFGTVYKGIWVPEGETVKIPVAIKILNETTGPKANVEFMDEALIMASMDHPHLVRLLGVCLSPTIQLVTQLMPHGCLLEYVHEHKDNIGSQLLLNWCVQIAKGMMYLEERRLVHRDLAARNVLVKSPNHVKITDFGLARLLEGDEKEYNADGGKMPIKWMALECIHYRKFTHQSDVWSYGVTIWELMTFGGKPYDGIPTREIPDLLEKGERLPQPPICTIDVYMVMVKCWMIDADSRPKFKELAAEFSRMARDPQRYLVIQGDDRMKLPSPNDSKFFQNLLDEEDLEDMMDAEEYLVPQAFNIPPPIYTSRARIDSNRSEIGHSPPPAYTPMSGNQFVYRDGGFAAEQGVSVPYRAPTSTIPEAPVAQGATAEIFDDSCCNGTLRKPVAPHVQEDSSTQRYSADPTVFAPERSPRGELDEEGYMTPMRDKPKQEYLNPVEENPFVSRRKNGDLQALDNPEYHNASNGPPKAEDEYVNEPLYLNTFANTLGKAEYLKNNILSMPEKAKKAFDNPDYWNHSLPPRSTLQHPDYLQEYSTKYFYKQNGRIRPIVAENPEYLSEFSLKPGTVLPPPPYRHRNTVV

[32] = target: Macrophage colony-stimulating factor 1 receptor (Homo sapiens) (UniProt P07333); test: Inhibition of recombinant human His-tagged CSF1R (538 to 910 residues) expressed in baculovirus expression system at 1 uM by Z-lyte assay relative to control
[33] = target: Receptor tyrosine-protein kinase erbB-2 (Homo sapiens) (UniProt P04626); test: Inhibition of human recombinant His-tagged HER2 (676 to 1255 residues) expressed in baculovirus expression system at 1 uM by Z-lyte assay relative to control
[34] = target: Insulin-like growth factor 1 receptor (Homo sapiens) (UniProt P08069); test: Inhibition of recombinant human C-terminal His-tagged IGF1R (960 to 1397 residues) expressed in baculovirus expression system at 1 uM by Z-lyte assay relative to control

For `C=CC(=O)Nc1ccc(OC)c(Nc2cc(-n3c(CCCO)nnc3-c3ccc(F)cc3)ccn2)c1`, the IC50 [1] was 88.6 µM, the IC50 [2] was > 100 µM and the IC50 [3] was > 100 µM. For the same compound, the IC50 [4] was > 100 µM.

In the case of `CCC(=O)Nc1cc(Nc2cc(-n3c(SC)nnc3-c3ccc(F)cc3)ccn2)c(OC)cc1N(C)CCN(C)C`, the IC50 [1] is reported as 73.9 µM, the IC50 [2] is reported as > 100 µM and the IC50 [3] is reported as 53.1 µM. For the same compound, the IC50 [4] was > 100 µM.

With `C=CC(=O)Nc1cccc(Nc2cc(-n3c(SC)nnc3-c3ccc(F)cc3)ccn2)c1` the IC50 [1] was 6.9 µM, the IC50 [2] was 10.7 µM and the IC50 [5] was 0.234 µM. It also gave an IC50 [3] of 3.5 µM and an IC50 [4] of 13 µM.

`C=CC(=O)Nc1ccc(OC)c(Nc2cc(-n3c(C)nnc3-c3ccc(F)cc3)ccn2)c1` gave an IC50 [1] of 52.6 µM, an IC50 [2] of 53.5 µM and an IC50 [3] of 68.1 µM. For the same compound, the IC50 [4] was 35.7 µM.

With `C=CC(=O)Nc1cc(Nc2cc(-n3c(SC)nnc3-c3ccc(F)cc3)ccn2)c(OC)cc1N1CCC(N(C)C)CC1` the IC50 [1] was 11.4 µM, the IC50 [2] was 13.2 µM and the IC50 [3] was 8.42 µM. The IC50 [4] was 39.7 µM.

In the case of `COc1cc(N(C)CCN(C)C)ccc1Nc1cc(-n2c(SC)nnc2-c2ccc(F)cc2)ccn1`, the IC50 [1] is reported as > 100 µM, the IC50 [2] is reported as 41.9 µM and the IC50 [3] is reported as 19.2 µM. The IC50 [4] was > 100 µM.

For `C=CC(=O)Nc1cc(Nc2nccc(-c3cn(C)c4ccccc34)n2)c(OC)cc1N(C)CCN(C)C` [OSIMERTINIB], the IC50 [1] was […], the IC50 [2] was […] and the IC50 [3] was 4.5 µM. For the same compound, the IC50 [4] was 13.1 µM.

With `C=CC(=O)Nc1cc(Nc2cc(-n3c(SC)nnc3-c3ccc(F)cc3)ccn2)c(OC)cc1N1CCN(C)CC1` the IC50 [1] was 14.3 µM, the IC50 [2] was > 100 µM and the IC50 [3] was 8.66 µM. The IC50 [4] was > 100 µM.

With `C=CC(=O)Nc1cc(Nc2cc(-n3c(SC)nnc3-c3ccc(F)cc3)ccn2)c(OC)cc1N(C)CCN(C)C` the Activity [6] was “inactive”, the inhibition [7] was 7% and the Activity [8] was 1.1%. For the same compound, the inhibition [9] was 13%, the IC50 [1] was 4 µM and the inhibition [10] was 18%. For the same compound, the inhibition [11] was 9%, the IC50 [2] was 5.4 µM and the Activity [12] was 0.91%. For the same compound, the inhibition [13] was 4%, the inhibition [14] was 10% and the Activity [15] was 4.83%. It also gave an Activity [16] of 3.99%, an IC50 [17] of 0.0893 µM and an Activity [18] of 95.5%. The inhibition [19] was -7%, the Activity [20] was 7.14% and the inhibition [21] was 5%. It also gave an IC50 [5] of 0.0431 µM, an Activity [22] of 84% and an inhibition [23] of 12%. For the same compound, the Activity [24] was 1.69%, the Activity [25] was 0.44% and the Activity [26] was 1.28%. It also gave an inhibition [27] of 11%, an IC50 [3] of 2.8 µM and an Activity [28] of 1.87%. For the same compound, the Activity [29] was 97.2%, the inhibition [30] was 17% and the inhibition [31] was 76%. For the same compound, the inhibition [32] was 12%, the inhibition [33] was 16% and the inhibition [34] was 10%. It also gave an IC50 [4] of 18 µM.
